Laboratory results as given in US9907803B2, “Methods for treating attention deficit hyperactivity disorder” (REVIVA PHARMACEUTICALS, INC., priority 2014, dated 2018).
Structures can show the parent of a compound that is named as a salt.

Biological target: 5-HT2A (Homo sapiens, UniProt P28223)
Experiment: Radioligand binding assay, serotonin 5-HT2A
Conditions: 5-HT2A radioligand binding
Method: Two arylpiperazine derivatives of Formula (I) were tested in the in vitro pharmacological assays to evaluate their activities for dopamine D2 and D4, and serotonin 5-HT1A, 5-HT2A, 5-HT2B, 5-HT6 and 5-HT7 receptors.
Methods employed to evaluate the test compounds A and B in radioligand binding assays were adopted from the scientific literature references as shown in Table 1 to maximize reliability and reproducibility. Reference standards were run as an integral part of each assay to ensure the validity of the results obtained.
Literature References in Table 1: • 1. Gundlach, A. L., et al., Life Sciences 1984, 35:1981-1986. • 2. Hoyer, D., et al, Eur J Pharmacol, 1985, 118:13-23 • 3. Hall, D. a., et al, Brit J Pharmacol, 1997, 121:731-736. • 4. Carpenter, J. W., et al, (2002) Configuring radioligand receptor binding assays for HTS using scintillation proximity assay technology. Methods in Molecular Biology 190 High Throughput Screening: Methods and Protocols • [www.ncgc.nihgov/guidance/manualtoc.html] • 5. Van Tol, et al, nature 1992, 358:149-152. • 6. Bonhaus, D. W., et al, Brit J Pharmacol, 1995, 115:622-628. • 7. Monsma, F. J., et al, Mol Pharmacol, 1993, 43:320-327. • 8. Shen, Y. et al, J. Biol Chem, 1993, 268:18200-18204. • 9. Adham, N., et al, J Pharmacol Exp Ther, 1998, 287:508-514.

Chain of 5-HT2A (P28223 whole entry): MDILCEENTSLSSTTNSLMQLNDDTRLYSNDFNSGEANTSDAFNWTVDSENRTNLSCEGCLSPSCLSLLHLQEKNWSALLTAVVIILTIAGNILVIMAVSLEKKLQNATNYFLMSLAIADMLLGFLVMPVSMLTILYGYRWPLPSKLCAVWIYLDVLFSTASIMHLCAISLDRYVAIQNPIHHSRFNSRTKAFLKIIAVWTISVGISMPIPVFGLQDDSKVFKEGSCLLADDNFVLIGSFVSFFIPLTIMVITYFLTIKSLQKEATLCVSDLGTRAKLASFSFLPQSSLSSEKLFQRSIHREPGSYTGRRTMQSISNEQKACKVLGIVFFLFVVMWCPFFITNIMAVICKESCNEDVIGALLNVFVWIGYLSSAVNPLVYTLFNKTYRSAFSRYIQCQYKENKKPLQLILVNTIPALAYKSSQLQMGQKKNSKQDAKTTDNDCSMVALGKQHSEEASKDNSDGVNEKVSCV

Structure (SMILES): O=C1COc2ccc(OCCCCN3CCN(c4cccc(Cl)c4Cl)CC3)cc2N1 [Compound B, 6-(4-(4-(2,3-dichlorophenyl)piperazin-1-yl)butoxy)-2H-benzo[b][1,4]oxazin-3(4H)-one hydrochloride]
- Ki: 2.5 nM
